In US20090012326A1 (priority 2006, published 2009):
Entries after “also recorded” stand apart in the source; their conditions may differ.

Tests used:
[1] = tested on: Wistar rats intoxicated with PQ
Protocol: The study was performed using (n=84) adults male Wistar rats obtained from Charles River S. A. (Barcelona, Spain), with a mean weight of 250±10 g. Animals were randomly distributed in number of two per polypropylene cages with a stainless steel net at the top and wood chips at the screen bottom, in a air-conditioned room (alternate cycles of 12 hours light and darkness, room temperature 22±2° C. and with a relative humidity of 50-60%) at least one week (quarantine) before starting the experience in order to acclimate to their surrounding conditions. Animals were allowed access to tap water and rat chow ad libitum during the quarantine period. Housing and experimental treatment of animals were in accordance with National Institutes of Health guidelines (ILAR 1996). The experiments complied with the current laws of Portugal.
(§1) The biochemical and histological studies were carried out with 60 animals, randomly distributed to ten groups. Each animal was individually housed during the experimental period in a polypropylene cage with a stainless steel net at the top and wood chips at the screen bottom. Tap water and rat chow were given ad libitum during the entire experiment. […] Each group was treated as follows: (doses were given per Kg/body weight):
For the evaluation of survival rate, 24 animals were randomly divided into four groups (control, NaSAL, PQ and PQ+NaSAL) of six animals each. […]

[2] = tested on: lung tissue of Wistar rats; settings: rat, in vivo
Protocol: as §1
(I) Control group, n=6: animals treated with 0.9% NaCl. Animals were treated with one more administration of 0.9% NaCl two hours later and sacrificed 24 hours after the second injection;
(II) NaSAL group, n=18: animals treated with 0.9% NaCl. Animals were treated with one administration of NaSAL (200 mg/kg) two hours later and sacrificed 24 hours (n=6, NaSAL 24 h group), 48 hours (n=6, NaSAL 48 h group) and 96 hours (n=6, NaSAL 96 h group) after the second injection;
(III) PQ group, n=18: animals intoxicated with PQ (25 mg/kg). Animals were treated with one more administration of 0.9% NaCl two hours later and sacrificed 24 hours (n=6, PQ 24 h group), 48 hours (n=6, PQ 48 h group) and 96 hours (n=6, PQ 96 h group) after the second injection;
(IV) PQ+NaSAL group, n=18: animals intoxicated with PQ (25 mg/kg). Two hours later, animals were treated with NaSAL (200 mg/kg) and sacrificed 24 hours (n=6, PQ+NaSAL 24 h group), 48 hours (n=6, PQ+NaSAL 48 h group) and 96 hours (n=6, PQ+NaSAL 96 h group) after the second injection.
Two animals of each group were assigned to histological analysis. Lung samples were subjected to routine procedures for light microscopy (LM) and transmission electron microscopy (TEM) analysis. With the animals under anaesthesia, lung fixation was initiated in situ by perfusion through pulmonary artery, with 2.5% glutaraldehyde in 0.2 M sodium cacodylate buffer (pH 7.2-7.4) during 3 min. Subsequently, lungs were excised and sectioned into approximately 1 mm^3 cubic pieces. After two washing steps, of 30 minutes each with buffer solution, the specimens were dehydrated in graded alcohol for 2 hours, and then embedded in Epon resin. […]

[3] = cited from earlier work

O=C([O-])c1ccccc1O.[Na+] [sodium salicylate, 2-hydroxybenzoic acid sodium salt]
survival ([1]; PQ 25 mg/Kg i.p., sodium salicylate 200 mg/Kg i.p. two hours after PQ, 30 days after PQ): 100%

C[n+]1ccc(-c2cc[n+](C)cc2)cc1.[Cl-].[Cl-] [paraquat, 1,1′-dimethyl-4,4′-bipyridinium dichloride]
lethality ([1]; intraperitoneal PQ dose, absence of treatment, at the end of 6 days): 100% | lung structure (light and electron micrographs) [2]: a marked vascular congestion and a notorious generalized alveolar collapse; also recorded: areas of necrosis of the alveolar wall and macrophages, cellular debris and inflammatory infiltrate within the alveolar space; also recorded: an intense vascular congestion as well as the presence of cellular debris and phagocytes within the alveolar space

CC(=O)Oc1ccccc1C(=O)O [acetylsalicylic acid]
share of the total plasma salicylate in the acetylated form ([3]; 30 minutes after a dose of 0.65 g): 27% | plasma half-life ([3]; in vivo): about 15 min
